Source: the supplement of paper PMC10307832

What was measured:
Assay in all cases: relative viability (nuclei count vs DMSO), 5 days (fraction); higher = more cells survive
NCI-H1650 = tested on: NCI-H1650
Outline: (§1)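 Each reported value is a median over duplicate plates. It expresses relative viability: treated-well nuclei count divided by vehicle-well nuclei count. Lung cancer cell lines in 1536-well plates were dosed by pin tool a day after seeding, alone with one drug or with a fixed anchor-drug dose plus five library-drug doses (not always all listed) in √10 steps, and nuclei were counted after 5 days.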

NCI-H2342 = tested on: NCI-H2342
Outline: as §1

NCI-H647 = tested on: NCI-H647
Outline: as §1

NCI-H2347 = tested on: NCI-H2347
Outline: as §1

PC-14 = tested on: PC-14
Outline: as §1

NCI-H661 = tested on: NCI-H661
Outline: as §1

NCI-H1993 = tested on: NCI-H1993
Outline: as §1

SW 1573 = tested on: SW 1573
Outline: as §1

NCI-H322M = tested on: NCI-H322M
Outline: as §1

NCI-H1915 = tested on: NCI-H1915
Outline: as §1

NCI-H358 = tested on: NCI-H358
Outline: as §1

EMC-BAC-2 = tested on: EMC-BAC-2
Outline: as §1

HOP-62 = tested on: HOP-62
Outline: as §1

NCI-H2085 = tested on: NCI-H2085
Outline: as §1

NCI-H727 = tested on: NCI-H727
Outline: as §1

NCI-H2023 = tested on: NCI-H2023
Outline: as §1

LCLC-97TM1 = tested on: LCLC-97TM1
Outline: as §1

LXF-289 = tested on: LXF-289
Outline: as §1

NCI-H2126 = tested on: NCI-H2126
Outline: as §1

H3255 = tested on: H3255
Outline: as §1

SK-LU-1 = tested on: SK-LU-1
Outline: as §1

BEN = tested on: BEN
Outline: as §1

NCI-H2009 = tested on: NCI-H2009
Outline: as §1

**Q.** With `C[C@@H]1CN(CC(=O)Nc2ccc3c(c2)Cc2cccc(-c4cc(=O)cc(N5CCOCC5)o4)c2S3)C[C@H](C)O1` + O=C(CCCCCCC(=O)Nc1ccccc1)NO [Vorinostat] (partner 1 µM) as the compound, how does the relative viability (NCI-H1650; first compound 0.04 µM) read?
**A.** Its relative viability is 0.604.

**Q.** And the relative viability (NCI-H1650; first compound 0.1265 µM)?
**A.** The relative viability was 0.488.

**Q.** And the relative viability (NCI-H1650; first compound 0.4 µM)?
**A.** The relative viability was 0.588.

**Q.** What about the relative viability (NCI-H1650; first compound 4 µM) of the same compound?
**A.** The relative viability was 0.517.

**Q.** And the relative viability (NCI-H2342; first compound 0.04 µM)?
**A.** Its relative viability is 0.609.

**Q.** And the relative viability (NCI-H2342; first compound 0.1265 µM)?
**A.** The relative viability was 0.652.

**Q.** What about the relative viability (NCI-H2342; first compound 0.4 µM) of the same compound?
**A.** The relative viability was 0.668.

**Q.** And the relative viability (NCI-H2342; first compound 4 µM)?
**A.** Its relative viability is 0.703.

**Q.** And the relative viability (NCI-H647; first compound 0.04 µM)?
**A.** Its relative viability is 0.547.

**Q.** What about the relative viability (NCI-H647; first compound 0.1265 µM) of the same compound?
**A.** The relative viability was 0.491.

**Q.** What about the relative viability (NCI-H647; first compound 0.4 µM) of the same compound?
**A.** Its relative viability is 0.665.

**Q.** And the relative viability (NCI-H647; first compound 4 µM)?
**A.** The relative viability was 0.416.

**Q.** And the relative viability (NCI-H2347; first compound 0.04 µM)?
**A.** Its relative viability is 0.564.

**Q.** And the relative viability (NCI-H2347; first compound 0.1265 µM)?
**A.** Its relative viability is 0.623.

**Q.** And the relative viability (NCI-H2347; first compound 0.4 µM)?
**A.** Its relative viability is 0.562.

**Q.** And the relative viability (NCI-H2347; first compound 4 µM)?
**A.** The relative viability was 0.533.

**Q.** What about the relative viability (PC-14; first compound 0.04 µM) of the same compound?
**A.** Its relative viability is 0.75.

**Q.** And the relative viability (PC-14; first compound 0.1265 µM)?
**A.** The relative viability was 0.689.

**Q.** What about the relative viability (PC-14; first compound 0.4 µM) of the same compound?
**A.** The relative viability was 0.705.

**Q.** And the relative viability (PC-14; first compound 4 µM)?
**A.** The relative viability was 0.61.

**Q.** And the relative viability (NCI-H661; first compound 0.04 µM)?
**A.** The relative viability was 0.689.

**Q.** What about the relative viability (NCI-H661; first compound 0.1265 µM) of the same compound?
**A.** The relative viability was 0.805.

**Q.** And the relative viability (NCI-H661; first compound 0.4 µM)?
**A.** The relative viability was 0.756.

**Q.** And the relative viability (NCI-H661; first compound 4 µM)?
**A.** Its relative viability is 0.773.

**Q.** And the relative viability (NCI-H1993; first compound 0.04 µM)?
**A.** Its relative viability is 0.911.

**Q.** And the relative viability (NCI-H1993; first compound 0.1265 µM)?
**A.** The relative viability was 0.78.

**Q.** What about the relative viability (NCI-H1993; first compound 0.4 µM) of the same compound?
**A.** Its relative viability is 0.626.

**Q.** And the relative viability (NCI-H1993; first compound 4 µM)?
**A.** The relative viability was 0.735.

**Q.** And the relative viability (SW 1573; first compound 0.04 µM)?
**A.** Its relative viability is 0.551.

**Q.** And the relative viability (SW 1573; first compound 0.1265 µM)?
**A.** Its relative viability is 0.989.

**Q.** What about the relative viability (SW 1573; first compound 0.4 µM) of the same compound?
**A.** Its relative viability is 0.909.

**Q.** And the relative viability (SW 1573; first compound 4 µM)?
**A.** The relative viability was 0.769.

**Q.** And the relative viability (NCI-H322M; first compound 0.04 µM)?
**A.** Its relative viability is 0.883.

**Q.** And the relative viability (NCI-H322M; first compound 0.1265 µM)?
**A.** Its relative viability is 0.847.

**Q.** What about the relative viability (NCI-H322M; first compound 0.4 µM) of the same compound?
**A.** Its relative viability is 0.902.

**Q.** And the relative viability (NCI-H322M; first compound 4 µM)?
**A.** The relative viability was 0.776.

**Q.** What about the relative viability (NCI-H1915; first compound 0.04 µM) of the same compound?
**A.** The relative viability was 0.434.

**Q.** What about the relative viability (NCI-H1915; first compound 0.1265 µM) of the same compound?
**A.** The relative viability was 0.538.

**Q.** And the relative viability (NCI-H1915; first compound 0.4 µM)?
**A.** The relative viability was 0.537.

**Q.** What about the relative viability (NCI-H1915; first compound 4 µM) of the same compound?
**A.** Its relative viability is 0.421.

**Q.** What about the relative viability (NCI-H358; first compound 0.04 µM) of the same compound?
**A.** Its relative viability is 0.724.

**Q.** What about the relative viability (NCI-H358; first compound 0.1265 µM) of the same compound?
**A.** The relative viability was 0.589.

**Q.** And the relative viability (NCI-H358; first compound 0.4 µM)?
**A.** The relative viability was 0.687.

**Q.** And the relative viability (NCI-H358; first compound 4 µM)?
**A.** Its relative viability is 0.261.

**Q.** And the relative viability (EMC-BAC-2; first compound 0.04 µM)?
**A.** Its relative viability is 0.397.

**Q.** What about the relative viability (EMC-BAC-2; first compound 0.1265 µM) of the same compound?
**A.** The relative viability was 0.468.

**Q.** And the relative viability (EMC-BAC-2; first compound 0.4 µM)?
**A.** The relative viability was 0.469.

**Q.** And the relative viability (EMC-BAC-2; first compound 4 µM)?
**A.** The relative viability was 0.54.

**Q.** And the relative viability (HOP-62; first compound 0.04 µM)?
**A.** Its relative viability is 0.477.

**Q.** What about the relative viability (HOP-62; first compound 0.1265 µM) of the same compound?
**A.** The relative viability was 0.648.

**Q.** And the relative viability (HOP-62; first compound 0.4 µM)?
**A.** Its relative viability is 0.687.

**Q.** What about the relative viability (HOP-62; first compound 4 µM) of the same compound?
**A.** Its relative viability is 0.509.

**Q.** And the relative viability (NCI-H2085; first compound 0.04 µM)?
**A.** Its relative viability is 0.814.

**Q.** What about the relative viability (NCI-H2085; first compound 0.1265 µM) of the same compound?
**A.** Its relative viability is 0.782.

**Q.** And the relative viability (NCI-H2085; first compound 0.4 µM)?
**A.** The relative viability was 0.69.

**Q.** What about the relative viability (NCI-H2085; first compound 4 µM) of the same compound?
**A.** Its relative viability is 0.667.

**Q.** And the relative viability (NCI-H727; first compound 0.04 µM)?
**A.** The relative viability was 1.03.

**Q.** And the relative viability (NCI-H727; first compound 0.1265 µM)?
**A.** The relative viability was 1.17.

**Q.** What about the relative viability (NCI-H727; first compound 0.4 µM) of the same compound?
**A.** Its relative viability is 1.15.

**Q.** And the relative viability (NCI-H727; first compound 4 µM)?
**A.** Its relative viability is 1.13.

**Q.** What about the relative viability (NCI-H2023; first compound 0.04 µM) of the same compound?
**A.** The relative viability was 0.578.

**Q.** What about the relative viability (NCI-H2023; first compound 0.1265 µM) of the same compound?
**A.** The relative viability was 0.59.

**Q.** What about the relative viability (NCI-H2023; first compound 0.4 µM) of the same compound?
**A.** The relative viability was 0.581.

**Q.** What about the relative viability (NCI-H2023; first compound 4 µM) of the same compound?
**A.** The relative viability was 0.505.

**Q.** And the relative viability (LCLC-97TM1; first compound 0.1265 µM)?
**A.** Its relative viability is 0.547.

**Q.** What about the relative viability (LCLC-97TM1; first compound 0.4 µM) of the same compound?
**A.** The relative viability was 0.685.

**Q.** And the relative viability (LCLC-97TM1; first compound 4 µM)?
**A.** The relative viability was 0.552.

**Q.** And the relative viability (LXF-289; first compound 0.04 µM)?
**A.** Its relative viability is 0.534.

**Q.** And the relative viability (LXF-289; first compound 0.1265 µM)?
**A.** The relative viability was 0.794.

**Q.** What about the relative viability (LXF-289; first compound 0.4 µM) of the same compound?
**A.** The relative viability was 0.88.

**Q.** What about the relative viability (LXF-289; first compound 4 µM) of the same compound?
**A.** The relative viability was 0.733.

**Q.** What about the relative viability (NCI-H2126; first compound 0.04 µM) of the same compound?
**A.** Its relative viability is 0.853.

**Q.** And the relative viability (NCI-H2126; first compound 0.1265 µM)?
**A.** Its relative viability is 0.768.

**Q.** And the relative viability (NCI-H2126; first compound 0.4 µM)?
**A.** Its relative viability is 0.759.

**Q.** What about the relative viability (NCI-H2126; first compound 4 µM) of the same compound?
**A.** The relative viability was 0.701.

**Q.** And the relative viability (H3255; first compound 0.04 µM)?
**A.** The relative viability was 0.634.

**Q.** What about the relative viability (H3255; first compound 0.1265 µM) of the same compound?
**A.** The relative viability was 0.757.

**Q.** And the relative viability (H3255; first compound 0.4 µM)?
**A.** Its relative viability is 0.985.

**Q.** And the relative viability (H3255; first compound 4 µM)?
**A.** Its relative viability is 0.67.

**Q.** What about the relative viability (SK-LU-1; first compound 0.04 µM) of the same compound?
**A.** The relative viability was 0.765.

**Q.** What about the relative viability (SK-LU-1; first compound 0.1265 µM) of the same compound?
**A.** The relative viability was 0.831.

**Q.** What about the relative viability (SK-LU-1; first compound 0.4 µM) of the same compound?
**A.** The relative viability was 0.811.

**Q.** What about the relative viability (SK-LU-1; first compound 4 µM) of the same compound?
**A.** Its relative viability is 0.568.

**Q.** What about the relative viability (BEN; first compound 0.04 µM) of the same compound?
**A.** The relative viability was 0.56.

**Q.** And the relative viability (BEN; first compound 0.1265 µM)?
**A.** Its relative viability is 0.55.

**Q.** What about the relative viability (BEN; first compound 0.4 µM) of the same compound?
**A.** Its relative viability is 0.602.

**Q.** And the relative viability (BEN; first compound 4 µM)?
**A.** Its relative viability is 0.625.

**Q.** And the relative viability (NCI-H2009; first compound 0.04 µM)?
**A.** The relative viability was 0.635.

**Q.** What about the relative viability (NCI-H2009; first compound 0.1265 µM) of the same compound?
**A.** Its relative viability is 0.772.

**Q.** And the relative viability (NCI-H2009; first compound 0.4 µM)?
**A.** Its relative viability is 0.664.

**Q.** What about the relative viability (NCI-H2009; first compound 4 µM) of the same compound?
**A.** Its relative viability is 0.497.
